Data: patent US20140349955A1, “USE OF FLUORINE-CONTAINING WATER SOLUBLE PLATINUM COMPLEX IN PREPARING DRUGS FOR PREVENTION AND TREATMENT OF CANCERS” (GUDUI BIOPHARMA TECHNOLOGY INC., priority 2011, published 2014)

Tests used:
L1210 tumor cells = experiment: Antitumor efficacy in L1210 tumor-bearing CDF1 mice (increase in life span); type: in vivo
Procedure: In the following test, antitumor efficacy studies were performed using 8-9 weeks old female CDF1 mice, the average weight of the animal is 20-25 grams. L1210 tumor cells (about 10^5 cells per mouse) were inoculated intraperitoneally. The fluorine-containing water-soluble platinum complexes were used to treat the tumor-bearing animals and the efficacy was compared compared with the clinical platinum antitumor drugs. […] Drugs were administered intraperitoneally on day 1 and day 4 after tumor cell transplantation. The number of experimental animals in each group was 6.
The experimental animals were purchased from Vital River Laboratory Animal Technology Co. Ltd., Tumor cells L1210-leukemia cells were purchased from Shanghai An Yan Commercial Trade Co. Ltd.
The increase in life span (ILS) is calculated as follows:
Wherein, St=the weighted median survival time of treated animals; Su=the weighted median survival time of untreated animals

H460 = experiment: Synergistic cytotoxicity test (MTS), H460; type: cell-based, human; details: 96 h
Procedure: (§1) Containing 10% bovine fetal serum, 1 mM of sodium pyruvate, 2 mM of L-glutamine, 50 U/mL of penicillin, 50 μg/ mL of streptomycin.
(§2) Human tumor cells: du145-human prostate cancer; MCF-7-human breast cancer; SK0V3-human ovarian carcinoma, HT-29-human colon cancer; A549-human non-small cell lung cancer (adenocarcinoma), H460-human non-small cell lung cancer (large cell carcinoma), and animal tumor cells: L1210-mice leukemia cells used in the following activity test experiments were all purchased from Shanghai An Yan Commercial Trade Co., Ltd.
(§3) MTS test method was used in cytotoxicity assay. The tumor cells of logarithmic phase were collected, and then the concentration of cell suspension was adjusted, 100 μL of the cell suspension was added to each well, the cells were placed at 1000-10000 cells/well (edge well filled with sterile PBS). Cells were incubated at 37° C. with 5% CO2 to make cell monolayer overspread the bottom of each well (96-well flat-bottomed microplate). 100 μL of certain concentration solution of a mixture of the fluorine-containing water-soluble platinum complex with other antitumor agents was added to each well. Each condition was measured in five replicates. The microplate was incubated at 37° C. with 5% CO2 for 96 h and checked with inverted microscope. MTS working reagent: To 2 mL of MTS (2 mg/mL, prepared by DPBS) was added 100 μL of PMS (1 mg/mL, prepared by DPBS). The cell culture medium was discarded after centrifugation, the cell culture plate was carefully washed 2-3 times with PBS. Before detecting the absorbance value (OD), to each sample containing well was added 100 μL of cell culture medium, then 20 μL of MTS working reagent was added. After incubation at 37° C. with 5% CO2 for 2 h, the OD (optical density) value was detected at 490 nm.
(§4) Each of above experiment was repeated five times, and the cell viability was calculated according to the mean OD values.
(§5) Cell Viability (%)=(treated group OD value/control group OD value)×100
(§6) Control group: the conditions are the same as the above without adding the tested drug mixture (100 μL of culture medium was added in stead), and finally the absorbance was measured at 490 nm to obtain the OD value of the tumor cells.
(§7) Drug Group-1: only the fluorine-containing water-soluble platinum complex was added under the above conditions to obtain cell viability of tumor cells.
(§8) Drug Group-2: only the other chemotherapeutic drug (active ingredient) was added under the above conditions to obtain cell viability of tumor cells.
(§9) Drug Combination Group: the fluorine-containing water-soluble platinum complex and other chemotherapeutic drugs were added simultaneously under the above conditions to obtain cell viability of tumor cell. (2) Evaluation Method:
(§10) When the fluorine-containing water-soluble platinum complexes used in combination with other chemotherapy drugs, the inhibition effect on cancer cell proliferation is enhanced or synergistic, and the effect was calculated using the following formula:
(§11) Combination Effect (%)={[(A1-X)+(A2-X)]/(A1-A2)|}×100
(§12) wherein, A1 is the cell viability of drug group-1, A2 is the cell viability of drug group-2, X is the cell viability of drug combination group, (A1-A2)| is the absolute value of the cell viability difference between the two groups.
(§13) Calculated according to the above formula, when the results of [Combination Effect (%)]>+100%, that means the effect of inhibition on cell proliferation is enhanced or synergistic (3) Experimental Result: […]

MCF7 = experiment: Synergistic cytotoxicity test (MTS), MCF7; type: cell-based, human; details: 96 h
Procedure: as §1, §2, §3, §4, §5, §6, §7, §8, §9, §10, §11, §12, §13

A549 = experiment: Synergistic cytotoxicity test (MTS), A549; type: cell-based, human; details: 96 h
Procedure: as §1, §2, §3, §4, §5, §6, §7, §8, §9, §10, §11, §12, §13

SK0V3 = experiment: Synergistic cytotoxicity test (MTS), SKOV3; type: cell-based, human; details: 96 h
Procedure: as §1, §2, §3, §4, §5, §6, §7, §8, §9, §10, §11, §12, §13

DU145 = experiment: Synergistic cytotoxicity test (MTS), DU145; type: cell-based, human; details: 96 h
Procedure: as §1, §2, §3, §4, §5, §6, §7, §8, §9, §10, §11, §12, §13

HT29 = experiment: Synergistic cytotoxicity test (MTS), HT29; type: cell-based, human; details: 96 h
Procedure: as §1, §2, §3, §4, §5, §6, §7, §8, §9, §10, §11, §12, §13

[1] = 1.25 mg/Kg i.p. on day 1 and day 4
[2] = 2.5 mg/Kg i.p. on day 1 and day 4
[3] = 5.0 mg/Kg i.p. on day 1 and day 4
[4] = other chemotherapy drug (at its listed dosage) combined with Complex 5 (dosage: 1 μM)
[5] = other chemotherapy drug (at its listed dosage) combined with Complex 6 (dosage: 1 μM)
[6] = other chemotherapy drug (at its listed dosage) combined with Complex 2 (dosage: 1 μM)
[7] = other chemotherapy drug (at its listed dosage) combined with Complex 3 (dosage: 1 μM)
[8] = other chemotherapy drug (at its listed dosage) combined with Complex 2 (dosage: 1 μM), SLOV3
[9] = other chemotherapy drug (at its listed dosage) combined with Complex 3 (dosage: 1 μM), SlOV3
[10] = other chemotherapy drug (at its listed dosage) combined with Complex 5 (dosage: 1 μM), SLOV3
[11] = other chemotherapy drug (at its listed dosage) combined with Complex 6 (dosage: 1 μM), SLOV3
[12] = 50 mg/Kg i.p. on day 1 and day 4
[13] = 100 mg/Kg i.p. on day 1 and day 4
[14] = 200 mg/Kg i.p. on day 1 and day 4

Row | Structure (SMILES) | the effect of drug combination (Combination Effect) (H460; [4]) | the effect of drug combination (Combination Effect) (H460; [5]) | the effect of drug combination (Combination Effect) (MCF7; [6]) | the effect of drug combination (Combination Effect) (MCF7; [7]) | the effect of drug combination (Combination Effect) (MCF7; [4]) | the effect of drug combination (Combination Effect) (MCF7; [5]) | the effect of drug combination (Combination Effect) (A549; [6]) | the effect of drug combination (Combination Effect) (A549; [7]) | the effect of drug combination (Combination Effect) (SK0V3; [8]) | the effect of drug combination (Combination Effect) (SK0V3; [9]) | the effect of drug combination (Combination Effect) (SK0V3; [10]) | the effect of drug combination (Combination Effect) (SK0V3; [11]) | the effect of drug combination (Combination Effect) (DU145; [6]) | the effect of drug combination (Combination Effect) (DU145; [7]) | the effect of drug combination (Combination Effect) (DU145; [4]) | the effect of drug combination (Combination Effect) (DU145; [5]) | the effect of drug combination (Combination Effect) (HT29; [6]) | the effect of drug combination (Combination Effect) (HT29; [7]) | the effect of drug combination (Combination Effect) (HT29; [4]) | the effect of drug combination (Combination Effect) (HT29; [5]) | further results
1 | N.N.[Cl][Pt][Cl] [Cisplatin] |  |  |  |  |  |  |  |  |  |  |  |  |  |  |  |  |  |  |  |  | ILS (%) (L1210 tumor cells; [1]): 36%; Survived Animals on Day 42 (L1210 tumor cells; [1]): 0/6; ILS (%) (L1210 tumor cells; [2]): 100%; Survived Animals on Day 42 (L1210 tumor cells; [2]): 0/6; ILS (%) (L1210 tumor cells; [3]): 236%; Survived Animals on Day 42 (L1210 tumor cells; [3]): 3/6
2 | CCCCCOC(=O)Nc1nc(=O)n([C@@H]2O[C@H](C)[C@@H](O)[C@H]2O)cc1F [Capecitabine] | ○ (○ represents: 100% < the effect of drug combination < 300%) | ○ (○ represents: 100% < the effect of drug combination < 300%) | ⊚ (⊚ represents the effect of drug combination > 300%) | ⊚ (⊚ represents the effect of drug combination > 300%) | ⊚ (⊚ represents the effect of drug combination > 300%) | ⊚ (⊚ represents the effect of drug combination > 300%) | ○ (○ represents: 100% < the effect of drug combination < 300%) | ○ (○ represents: 100% < the effect of drug combination < 300%) | ○ (○ represents: 100% < the effect of drug combination < 300%) | ○ (○ represents: 100% < the effect of drug combination < 300%) | ○ (○ represents: 100% < the effect of drug combination < 300%) | ○ (○ represents: 100% < the effect of drug combination < 300%) | ○ (○ represents: 100% < the effect of drug combination < 300%) | ○ (○ represents: 100% < the effect of drug combination < 300%) | ○ (○ represents: 100% < the effect of drug combination < 300%) | ○ (○ represents: 100% < the effect of drug combination < 300%) | ⊚ (⊚ represents the effect of drug combination > 300%) | ○ (○ represents: 100% < the effect of drug combination < 300%) | ○ (○ represents: 100% < the effect of drug combination < 300%) | ○ (○ represents: 100% < the effect of drug combination < 300%) | 
3 | O=c1[nH]cc(F)c(=O)[nH]1 [5-Fluorouracil] | ⊚ (⊚ represents the effect of drug combination > 300%) | ⊚ (⊚ represents the effect of drug combination > 300%) | ⊚ (⊚ represents the effect of drug combination > 300%) | ⊚ (⊚ represents the effect of drug combination > 300%) | ⊚ (⊚ represents the effect of drug combination > 300%) | ⊚ (⊚ represents the effect of drug combination > 300%) | ⊚ (⊚ represents the effect of drug combination > 300%) | ⊚ (⊚ represents the effect of drug combination > 300%) | ⊚ (⊚ represents the effect of drug combination > 300%) | ⊚ (⊚ represents the effect of drug combination > 300%) | ⊚ (⊚ represents the effect of drug combination > 300%) | ⊚ (⊚ represents the effect of drug combination > 300%) | ⊚ (⊚ represents the effect of drug combination > 300%) | ⊚ (⊚ represents the effect of drug combination > 300%) | ⊚ (⊚ represents the effect of drug combination > 300%) | ⊚ (⊚ represents the effect of drug combination > 300%) | ⊚ (⊚ represents the effect of drug combination > 300%) | ⊚ (⊚ represents the effect of drug combination > 300%) | ⊚ (⊚ represents the effect of drug combination > 300%) | ⊚ (⊚ represents the effect of drug combination > 300%) | 
4 | Nc1ccn([C@@H]2O[C@H](CO)[C@@H](O)C2(F)F)c(=O)n1 [Gemcitabine] | ⊚ (⊚ represents the effect of drug combination > 300%) | ⊚ (⊚ represents the effect of drug combination > 300%) | ⊚ (⊚ represents the effect of drug combination > 300%) | ⊚ (⊚ represents the effect of drug combination > 300%) | ⊚ (⊚ represents the effect of drug combination > 300%) | ⊚ (⊚ represents the effect of drug combination > 300%) | ⊚ (⊚ represents the effect of drug combination > 300%) | ⊚ (⊚ represents the effect of drug combination > 300%) | ⊚ (⊚ represents the effect of drug combination > 300%) | ○ (○ represents: 100% < the effect of drug combination < 300%) | ○ (○ represents: 100% < the effect of drug combination < 300%) | ○ (○ represents: 100% < the effect of drug combination < 300%) | ⊚ (⊚ represents the effect of drug combination > 300%) | ○ (○ represents: 100% < the effect of drug combination < 300%) | ○ (○ represents: 100% < the effect of drug combination < 300%) | ○ (○ represents: 100% < the effect of drug combination < 300%) | ⊚ (⊚ represents the effect of drug combination > 300%) | ⊚ (⊚ represents the effect of drug combination > 300%) | ⊚ (⊚ represents the effect of drug combination > 300%) | ⊚ (⊚ represents the effect of drug combination > 300%) | 
5 | [NH2][Pt]1([NH2])[O]C(=O)C(F)(CCCOC2OC(CO)C(O)C(O)C2O)C(=O)[O]1 (stereo not drawn) [Complex 15] |  |  |  |  |  |  |  |  |  |  |  |  |  |  |  |  |  |  |  |  | ILS (%) (L1210 tumor cells; [12]): >380%; Survived Animals on Day 42 (L1210 tumor cells; [12]): 6/6; Weight Changes (g) (L1210 tumor cells; 50 mg/Kg i.p. on day 1 and day 4, weight changes from the first day to the seventh day): +1.0 g; ILS (%) (L1210 tumor cells; [13]): >380%; Survived Animals on Day 42 (L1210 tumor cells; [13]): 6/6; Weight Changes (L1210 tumor cells; 100 mg/Kg i.p. on day 1 and day 4, weight changes from the first day to the seventh day): -0.3 g; ILS (%) (L1210 tumor cells; [14]): >380%; Survived Animals on Day 42 (L1210 tumor cells; [14]): 6/6; Weight Changes (L1210 tumor cells; 200 mg/Kg i.p. on day 1 and day 4, weight changes from the first day to the seventh day): -0.8 g
